From US20110301162A1, “AURORA KINASE MODULATORS AND METHODS OF USE” (AMGEN INC., priority 2008, published 2011) come the findings set out here.

One assay concerns the target T1, AuroraA-TPX2 (Homo sapiens, UniProt O14965).
T1 construct: 20 μL of AuroraA-TPX2 KD GST; GST
T1 sequence (O14965 133-383 limits assumed): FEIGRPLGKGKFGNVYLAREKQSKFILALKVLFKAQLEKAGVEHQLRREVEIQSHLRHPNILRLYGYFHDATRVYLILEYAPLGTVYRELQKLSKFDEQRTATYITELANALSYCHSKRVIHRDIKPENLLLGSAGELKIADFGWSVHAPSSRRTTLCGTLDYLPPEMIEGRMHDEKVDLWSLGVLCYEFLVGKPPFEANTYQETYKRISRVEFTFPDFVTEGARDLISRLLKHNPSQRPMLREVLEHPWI
T1 sequence (Q9ULW0 1-43 partner limits assumed): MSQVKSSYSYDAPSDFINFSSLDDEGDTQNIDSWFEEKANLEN
The experiment in a line: AuroraA-TPX2 Homogeneous Time Resolved Fluorescent (HTRF) kinase assay. To be noted: average; ATP about 1 μM; read-out: AurA_IC50_IP (uM Avg). The assay is classed as biochemical. How it is done: The Aurora-A HTRF assay begins with Aurora-A in the presence of ATP phosphorylating the biotinylated peptide PLK. The reaction incubates for about 120 min. Detection reagents are added to quench the reaction. These agents stop the reaction by diluting out the enzyme and chelating the metals due to the presence of EDTA. After addition, the assay is incubated overnight to allow the detection reagents to equilibrate.
The AuroraA HTRF assay comprises 1 μL of compound in 100% DMSO, 20 μL of ATP and biotinylated PLK, and 20 μL of AuroraA-TPX2 KD GST for a final volume of about 41 μL. The final concentration of PLK is about 1 μM. The final concentration of ATP is about 1 μM (Km(app)=1 μM+/−0.1) and the final concentration of AuroraA is about 5 nM. Buffer conditions are as follows: 60 mM HEPES pH 7.5, 25mM NaCl, 10 mM MgCl, 2 mM DTT, 0.05% BSA.
The assay is quenched and stopped with 160 μL of detection reagent. Detection reagents are as follows: Buffer made of 50 mM Tris, pH 7.5, 100 mM NaCl, 3 mM EDTA, 0.05% BSA, 0.1% Tween20. Added to this buffer prior to reading is Steptavidin allophycocyanin (SA-APC) at a final conc in the assay of 0.0005 mg/mL, and europilated anti-phosphoPLK Ab (Eu-anti-PLK) at a final conc of 0.02 nM.
The assay plate is read in either a Discovery or a RubyStar. The eu-anti-PLK is excited at 320 nm and emits at 615 nm to excite the SA-APC which in turn emits at 655 nm. The ratio of SA-APC at 655 nm (excited due to close proximity to the Eu-anti-PLK because of phosphorylation of the peptide) to free Eu-anti-PLK at 615 nm will give substrate phosphorylation.
Many of the Examples described herein were tested and found to be active compounds. Table I includes related biological data, which may be interpreted using the activity gauge below.
A general note: TR-FRET usually uses a lanthanide donor and a delayed reading to cut background.

Another assay addresses T2, AuroraB (Homo sapiens, UniProt Q96GD4).
T2 construct: 20 μL of AuroraB FL His; His
The experiment in a line: AuroraB Homogeneous Time Resolved Fluorescent (HTRF) kinase assay. The assay is classed as biochemical. The conditions noted are these: average; ATP 23 μM; read-out: AurB_IC50_IP (uM Avg). How it is done: The AuroraB HTRF assay begins with AuroraB in the presence of ATP phosphorylating the biotinylated peptide Histone H3. The reaction incubates for about 90 min. the reaction is quentched by addition of detection reagents, which stop the reaction by diluting out the enzyme and chelating the metals due to the presence of EDTA. After addition, the assay is incubated for about 60 min to allow detection reagents to equilibrate.
The AuroraB HTRF assay comprises 1 μL of compound in 100% DMSO, 20 μL of ATP and biotinylated Histone H3, and 20 μL of AuroraB FL His for a final volume of 41 μL. The final concentration of Histone H3 is 0.1 μM. The final concentration of ATP is 23 μM (Km(app)=23 μM+/−2.6) and the final concentration of AuroraB is 400 pM. Buffer conditions are as follows: 50 mM HEPES pH 7.5, 5 mM NaCl, 0.5 mM MgCl, 0.5 mM MnCl, 2 mM DTT, 0.05% BSA.
The assay is quenched and stopped with 160 μL of detection reagent. Detection reagents are as follows: Buffer made of 50 mM Tris, pH 7.5, 100 mM NaCl, 3 mM EDTA, 0.05% BSA, 0.1% Tween20. Added to this buffer prior to reading is Steptavidin allophycocyanin (SA-APC) at a final conc in the assay of 0.001 mg/mL, and europilated anti-phosphoHistoneH3 Ab (Eu-anti-HisH3) at a final conc of 0.064 nM.
The assay plate is read in either a Discovery or a RubyStar. The eu-anti-HisH3 is excited at 320 nm and emits at 615 nm to excite the SA-APC which in turn emits at 655 nm. The ratio of SA-APC at 655 nm (excited due to close proximity to the Eu-anti-HisH3 because of phosphorylation of the peptide) to free Eu-anti-HisH3 at 615 nm will give substrate phosphorylation.
Many of the Examples described herein were tested, and fund to be active compounds. Table I includes related biological data, which may be interpreted using the activity gauge below.

The subject of another assay is HeLa cells. The assay is described as follows: HeLa cell 24 hr ploidy assay. In kind it is cell-based. The conditions noted are these: Homo sapiens, 24 hrs treatment, DNA ploidy, average, read-out: 24h_4N Ploidy EC50_IP (uM Avg). How it is done: The purpose of this assay is to evaluate the ability of selected individual compounds to induce Deoxyribonucleic acid (DNA) content (ploidy) in cells through failed cell division. Cell cycle analysis is a rapid and efficient way to evaluate the status of DNA content (ploidy) of a given cell. HeLa cells (1×10^4 HeLa cells/well) in 100 ul of media (MEM+10% FBS) were plated in 96-well plates (Packard View) and cultured for 24 hrs at 37° C. maintained in a 5% CO2 atmosphere. The following day, cells were treated for 24 hrs with inhibitor compounds (10 pt. Dose ranging from 0.0024-1.25 umol/L). The compounds were serially diluted in DMSO (0.25% final concentration). The cells were fixed (3.7% Formaldehyde and 1% glutaraldehyde) and permeabilized (1×PBS with 1% BSA an d0.2% Triton X-100) in preparation for nuclear staining. The well plates were stained for 45 minutes at RT in the dark using Hoechest 33342 nuclear stain at 0.5 ug.ml (Stock of 10 mg/ml, Invitrogen, Calif., Cat #H3570). The nuclear stain was removed by aspiration and the cells were washed with wash buffer. A Cellomics Array Scan Vti plate reader was used to acquire the DNA ploidy data of the cells using Cell Cycle bioapplication. Numbers for each of “valid cell count/well”, “% of 4N cells” and “% of >4Ncells” were calculated with the assistance of an Activity Base 5.1ca software and dose curves were generated using an XLFit software. With XLFit, final EC50 IP and EC50 transit values, as well as the Max and Min, were calculated for each curve.

Each structure is given as a SMILES string.

T2 sequence (Q96GD4 whole entry): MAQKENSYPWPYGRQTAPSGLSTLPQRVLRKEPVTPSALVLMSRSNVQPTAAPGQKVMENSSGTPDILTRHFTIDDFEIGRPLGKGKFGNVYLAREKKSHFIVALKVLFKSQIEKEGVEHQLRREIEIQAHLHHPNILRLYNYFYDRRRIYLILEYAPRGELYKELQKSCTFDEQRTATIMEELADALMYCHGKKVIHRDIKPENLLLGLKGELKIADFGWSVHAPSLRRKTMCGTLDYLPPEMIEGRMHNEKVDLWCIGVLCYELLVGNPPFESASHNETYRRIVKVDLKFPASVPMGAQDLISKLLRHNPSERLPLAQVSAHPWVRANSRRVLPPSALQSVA

As to `CNC(=O)c1cc(Oc2ccc(Nc3nnc(-c4ccc(Cl)cc4)c4ccccc34)cc2)ccn1` [Example 26, 4-((4-((4-(4-chlorophenyl)-1-phthalazinyl)amino)phenyl)oxy)-N-methyl-2-pyridinecarboxamide], the IC50 on AuroraA-TPX2 and on AuroraB was 0.1 to 0.5 µM each time. For the same compound, in the assay on HeLa cells, the EC50 was in the range of 0.1 to 0.5 µM.
Take `Cc1csc(-c2nnc(Nc3ccc(Sc4ccnc(-c5cc6ccccc6[nH]5)n4)cc3)c3ccccc23)c1` [Example 37, N-(4-((2-(1H-indol-2-yl)-4-pyrimidinyl)sulfanyl)phenyl)-4-(4-methyl-2-thiophenyl)-1-phthalazinamine]: the IC50 on AuroraA-TPX2 and on AuroraB was less than 0.1 µM each time. The EC50 in the assay with HeLa cells was less than 0.1 µM.
As to `O=C(Nc1cc(Oc2ccc(Nc3nnc(-c4ccccc4)c4ccccc34)cc2F)ccn1)N1CCOCC1` [Example 44, N-(4-((2-fluoro-4-((4-phenyl-1-phthalazinyl)amino)phenyl)oxy)-2-pyridinyl)-4-morpholinecarboxamide], the IC50 on AuroraA-TPX2 was 0.1 to 0.5 µM; on AuroraB it was less than 0.1 µM. Moreover, the EC50 in the assay on HeLa cells lay in the range of 0.1 to 0.5 µM.
As for `Clc1ccc(-c2nnc(Nc3ccc(Sc4ccnc(/C=C/c5ccccc5)n4)cc3)c3ccccc23)cc1` [Example 35, 4-(4-chlorophenyl)-N-(4-((2-((E)-2-phenylethenyl)-4-pyrimidinyl)sulfanyl)phenyl)-1-phthalazinamine], the IC50 at AuroraA-TPX2 is 0.1 to 0.5 µM; at AuroraB it was less than 0.1 µM. For the same compound, the EC50 with HeLa cells is less than 0.1 µM.
Turning to `CS(=O)(=O)CCNc1cc(Oc2ccc(Nc3nnc(-c4ccc(Cl)cc4)c4ccccc34)cc2)ccn1` [Example 29, 4-(4-chlorophenyl)-N-(4-((2-((2-(methylsulfonyl)ethyl)amino)-4-pyridinyl)oxy)phenyl)-1-phthalazinamine], the IC50 at AuroraA-TPX2 and at AuroraB was 0.1 to 0.5 µM each time. For the same compound, the EC50 in the assay on HeLa cells fell in the range of 1 to 5 µM.
